Test results: ChEMBL document CHEMBL4507328, “Data for DCP probe BAY-390” (2021)
Calls of active or inactive are those of the source. No cut-off for these calls is given here.

Key:
[1] = biological target: Transient receptor potential cation channel subfamily A member 1 (Homo sapiens, UniProt O75762); assay: FLIPR Ca2+ assay (human […])
[2] = biological target: Transient receptor potential cation channel subfamily A member 1 (Rattus norvegicus, UniProt Q6RI86); assay: FLIPR Ca2+ assay (rat TRPA1)
[3] = biological target: Transient receptor potential cation channel subfamily V member 1 (Homo sapiens, UniProt Q8NER1); assay: TRP selectivity screen (TRPV1)
Chain of Transient receptor potential cation channel subfamily V member 1 (Q8NER1 whole entry): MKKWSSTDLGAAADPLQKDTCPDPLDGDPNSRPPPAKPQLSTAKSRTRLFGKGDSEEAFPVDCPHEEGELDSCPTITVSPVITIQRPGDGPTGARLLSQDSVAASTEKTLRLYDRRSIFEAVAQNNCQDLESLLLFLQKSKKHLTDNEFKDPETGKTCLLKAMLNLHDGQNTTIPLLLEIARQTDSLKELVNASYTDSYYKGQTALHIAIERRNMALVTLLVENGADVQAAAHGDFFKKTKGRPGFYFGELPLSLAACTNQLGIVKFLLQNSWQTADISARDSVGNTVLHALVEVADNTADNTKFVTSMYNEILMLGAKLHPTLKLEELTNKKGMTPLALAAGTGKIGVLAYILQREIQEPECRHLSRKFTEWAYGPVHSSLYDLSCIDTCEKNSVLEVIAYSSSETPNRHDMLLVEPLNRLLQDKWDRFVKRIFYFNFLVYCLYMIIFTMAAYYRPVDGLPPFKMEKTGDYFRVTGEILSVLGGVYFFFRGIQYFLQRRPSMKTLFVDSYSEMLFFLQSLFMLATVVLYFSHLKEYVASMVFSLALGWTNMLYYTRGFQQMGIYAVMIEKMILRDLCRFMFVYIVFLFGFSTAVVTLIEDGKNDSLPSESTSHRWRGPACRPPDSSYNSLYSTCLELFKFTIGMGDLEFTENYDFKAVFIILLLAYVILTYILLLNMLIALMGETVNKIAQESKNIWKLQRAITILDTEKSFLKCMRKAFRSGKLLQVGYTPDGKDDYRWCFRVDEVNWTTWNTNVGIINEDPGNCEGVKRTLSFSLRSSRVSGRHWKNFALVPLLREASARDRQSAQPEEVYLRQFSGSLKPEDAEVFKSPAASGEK

[4] = biological target: Short transient receptor potential channel 5 (Homo sapiens, UniProt Q9UL62); assay: TRP selectivity screen (TRPC5)
Chain of Short transient receptor potential channel 5 (Q9UL62 whole entry): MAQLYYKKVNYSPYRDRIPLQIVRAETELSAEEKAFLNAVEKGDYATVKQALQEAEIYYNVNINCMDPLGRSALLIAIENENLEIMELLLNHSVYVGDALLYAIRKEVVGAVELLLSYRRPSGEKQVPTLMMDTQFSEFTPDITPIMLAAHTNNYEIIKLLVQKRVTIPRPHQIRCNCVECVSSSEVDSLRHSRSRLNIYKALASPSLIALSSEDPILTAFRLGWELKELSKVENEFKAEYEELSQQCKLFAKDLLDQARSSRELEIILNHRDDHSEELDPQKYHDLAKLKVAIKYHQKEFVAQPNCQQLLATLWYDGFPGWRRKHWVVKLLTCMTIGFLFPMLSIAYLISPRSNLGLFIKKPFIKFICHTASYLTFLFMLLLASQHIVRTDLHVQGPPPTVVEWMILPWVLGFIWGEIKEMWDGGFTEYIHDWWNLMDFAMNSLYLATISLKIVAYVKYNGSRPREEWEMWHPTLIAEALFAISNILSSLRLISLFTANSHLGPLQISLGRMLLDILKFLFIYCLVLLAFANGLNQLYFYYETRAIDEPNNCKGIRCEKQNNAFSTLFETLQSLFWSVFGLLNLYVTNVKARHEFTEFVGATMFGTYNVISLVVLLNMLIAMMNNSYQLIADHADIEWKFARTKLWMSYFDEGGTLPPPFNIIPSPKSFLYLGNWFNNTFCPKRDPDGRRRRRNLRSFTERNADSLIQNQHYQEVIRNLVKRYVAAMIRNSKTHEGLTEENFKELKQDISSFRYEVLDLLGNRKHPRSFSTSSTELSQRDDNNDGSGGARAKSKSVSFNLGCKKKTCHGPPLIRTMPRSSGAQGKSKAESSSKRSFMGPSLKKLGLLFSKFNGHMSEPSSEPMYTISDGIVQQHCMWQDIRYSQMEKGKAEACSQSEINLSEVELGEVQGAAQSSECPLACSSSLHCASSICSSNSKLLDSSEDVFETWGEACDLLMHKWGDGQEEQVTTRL

[5] = biological target: Short transient receptor potential channel 6 (Homo sapiens, UniProt Q9Y210); assay: TRP selectivity screen (TRPC6)
[6] = biological target: T1, 5-hydroxytryptamine receptor 1A (Homo sapiens) (UniProt P08908); details: Compound concentration 10.0 uM
T1 sequence (whole entry): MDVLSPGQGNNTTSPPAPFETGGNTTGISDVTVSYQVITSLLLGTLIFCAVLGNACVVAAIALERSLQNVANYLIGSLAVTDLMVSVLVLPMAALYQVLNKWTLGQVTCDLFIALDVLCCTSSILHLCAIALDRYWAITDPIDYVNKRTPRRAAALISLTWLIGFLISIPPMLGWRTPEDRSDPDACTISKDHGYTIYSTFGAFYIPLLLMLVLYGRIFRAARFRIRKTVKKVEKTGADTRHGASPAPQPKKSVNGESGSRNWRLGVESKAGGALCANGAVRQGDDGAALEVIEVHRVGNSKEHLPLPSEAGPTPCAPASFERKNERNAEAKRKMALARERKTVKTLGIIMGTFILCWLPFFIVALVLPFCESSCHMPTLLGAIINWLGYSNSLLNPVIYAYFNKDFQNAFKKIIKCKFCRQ

[7] = biological target: 5-hydroxytryptamine receptor 3A (Homo sapiens) (UniProt P46098); details: Compound concentration 10.0 uM
[8] = biological target: D(4) dopamine receptor (Homo sapiens) (UniProt P21917); details: Compound concentration 10.0 uM
[9] = biological target: Sodium-dependent serotonin transporter (Homo sapiens) (UniProt P31645); details: Compound concentration 10.0 uM
Chain of Sodium-dependent serotonin transporter (Homo sapiens) (P31645 whole entry, looked up): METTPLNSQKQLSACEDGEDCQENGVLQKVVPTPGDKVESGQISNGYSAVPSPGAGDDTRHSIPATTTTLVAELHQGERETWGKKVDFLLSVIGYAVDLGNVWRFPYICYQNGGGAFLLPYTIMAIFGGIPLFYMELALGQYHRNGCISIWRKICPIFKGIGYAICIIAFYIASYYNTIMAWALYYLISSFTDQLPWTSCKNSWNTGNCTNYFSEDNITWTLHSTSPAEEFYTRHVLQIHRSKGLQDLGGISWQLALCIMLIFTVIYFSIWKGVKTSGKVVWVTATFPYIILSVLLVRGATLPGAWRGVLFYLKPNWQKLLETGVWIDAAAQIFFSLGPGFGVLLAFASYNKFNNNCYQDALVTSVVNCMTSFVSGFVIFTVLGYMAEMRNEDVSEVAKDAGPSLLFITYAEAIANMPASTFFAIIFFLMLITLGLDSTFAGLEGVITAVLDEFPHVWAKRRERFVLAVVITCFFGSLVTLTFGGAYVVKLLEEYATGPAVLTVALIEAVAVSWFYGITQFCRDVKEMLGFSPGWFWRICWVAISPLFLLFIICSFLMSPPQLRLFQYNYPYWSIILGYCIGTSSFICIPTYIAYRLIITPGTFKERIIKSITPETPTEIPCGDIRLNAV

Histamine H2 receptor = Histamine H2 receptor (Homo sapiens, UniProt P25021); details: Compound concentration 10.0 uM
[10] = biological target: T2, Alpha-1A adrenergic receptor (Homo sapiens) (UniProt P35348); details: Compound concentration 10.0 uM
T2 sequence (whole entry): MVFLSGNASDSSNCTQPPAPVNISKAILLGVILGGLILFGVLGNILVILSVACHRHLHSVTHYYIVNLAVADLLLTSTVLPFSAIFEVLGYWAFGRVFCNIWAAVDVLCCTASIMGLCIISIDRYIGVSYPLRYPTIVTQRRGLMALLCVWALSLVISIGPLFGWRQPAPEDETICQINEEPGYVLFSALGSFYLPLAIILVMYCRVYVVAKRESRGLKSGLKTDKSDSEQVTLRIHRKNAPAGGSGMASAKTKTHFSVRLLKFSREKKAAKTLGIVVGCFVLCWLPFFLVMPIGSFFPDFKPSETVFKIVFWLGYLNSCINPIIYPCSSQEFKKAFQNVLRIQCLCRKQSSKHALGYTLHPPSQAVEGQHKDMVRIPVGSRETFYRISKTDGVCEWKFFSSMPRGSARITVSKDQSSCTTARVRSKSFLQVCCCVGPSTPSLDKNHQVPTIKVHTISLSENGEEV

[11] = biological target: T3, Alpha-2C adrenergic receptor (Homo sapiens) (UniProt P18825); details: Compound concentration 10.0 uM
T3 sequence (whole entry): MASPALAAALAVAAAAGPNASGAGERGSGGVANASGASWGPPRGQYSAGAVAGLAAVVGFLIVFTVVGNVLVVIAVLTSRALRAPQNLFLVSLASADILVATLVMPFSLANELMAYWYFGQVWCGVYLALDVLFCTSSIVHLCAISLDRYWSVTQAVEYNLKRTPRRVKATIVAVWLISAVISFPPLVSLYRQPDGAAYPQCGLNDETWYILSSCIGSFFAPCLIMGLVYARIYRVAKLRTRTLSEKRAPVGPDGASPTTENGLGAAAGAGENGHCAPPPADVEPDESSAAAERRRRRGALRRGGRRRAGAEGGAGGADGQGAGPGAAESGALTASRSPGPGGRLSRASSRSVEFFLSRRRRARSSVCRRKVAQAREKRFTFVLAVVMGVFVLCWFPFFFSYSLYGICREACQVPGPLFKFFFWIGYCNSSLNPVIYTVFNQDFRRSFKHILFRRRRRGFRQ

[12] = biological target: Beta-1 adrenergic receptor (Homo sapiens) (UniProt P08588); details: Compound concentration 10.0 uM
[13] = biological target: Beta-2 adrenergic receptor (Homo sapiens) (UniProt P07550); details: Compound concentration 10.0 uM
Chain of Beta-2 adrenergic receptor (Homo sapiens) (P07550 whole entry, looked up): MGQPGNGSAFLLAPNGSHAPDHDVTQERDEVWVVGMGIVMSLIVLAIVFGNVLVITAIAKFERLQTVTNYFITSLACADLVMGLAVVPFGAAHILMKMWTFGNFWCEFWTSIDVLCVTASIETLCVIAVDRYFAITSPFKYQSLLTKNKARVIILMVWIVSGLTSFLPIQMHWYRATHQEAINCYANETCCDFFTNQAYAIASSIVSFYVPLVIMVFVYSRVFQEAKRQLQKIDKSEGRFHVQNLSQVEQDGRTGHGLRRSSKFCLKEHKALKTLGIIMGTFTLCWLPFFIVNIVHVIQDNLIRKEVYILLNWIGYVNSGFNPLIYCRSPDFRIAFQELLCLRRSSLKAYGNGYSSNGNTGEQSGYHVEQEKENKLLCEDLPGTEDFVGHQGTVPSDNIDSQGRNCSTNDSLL

[14] = biological target: Muscarinic acetylcholine receptor M3 (Homo sapiens) (UniProt P20309); details: Compound concentration 10.0 uM
Chain of Muscarinic acetylcholine receptor M3 (Homo sapiens) (P20309 whole entry, looked up): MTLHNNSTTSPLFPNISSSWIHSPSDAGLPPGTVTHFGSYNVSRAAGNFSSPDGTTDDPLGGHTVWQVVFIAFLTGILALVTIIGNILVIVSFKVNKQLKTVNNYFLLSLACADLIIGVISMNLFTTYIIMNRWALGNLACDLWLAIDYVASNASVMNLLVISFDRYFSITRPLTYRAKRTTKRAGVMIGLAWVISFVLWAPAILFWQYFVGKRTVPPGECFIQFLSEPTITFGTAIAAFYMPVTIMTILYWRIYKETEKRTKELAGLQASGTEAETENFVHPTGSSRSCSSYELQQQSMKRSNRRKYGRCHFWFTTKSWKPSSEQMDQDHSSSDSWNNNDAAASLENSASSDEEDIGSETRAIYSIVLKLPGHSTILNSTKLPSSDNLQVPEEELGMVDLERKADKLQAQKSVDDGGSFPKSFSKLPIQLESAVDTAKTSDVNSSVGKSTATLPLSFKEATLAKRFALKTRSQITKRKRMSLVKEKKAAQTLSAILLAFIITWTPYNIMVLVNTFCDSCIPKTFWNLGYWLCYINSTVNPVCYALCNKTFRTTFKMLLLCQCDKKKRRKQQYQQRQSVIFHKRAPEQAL

[15] = biological target: Muscarinic acetylcholine receptor M5 (Homo sapiens) (UniProt P08912); details: Compound concentration 10.0 uM
[16] = biological target: Beta-3 adrenergic receptor (Homo sapiens) (UniProt P13945); details: Compound concentration 10.0 uM
Chain of Beta-3 adrenergic receptor (Homo sapiens) (P13945 whole entry, looked up): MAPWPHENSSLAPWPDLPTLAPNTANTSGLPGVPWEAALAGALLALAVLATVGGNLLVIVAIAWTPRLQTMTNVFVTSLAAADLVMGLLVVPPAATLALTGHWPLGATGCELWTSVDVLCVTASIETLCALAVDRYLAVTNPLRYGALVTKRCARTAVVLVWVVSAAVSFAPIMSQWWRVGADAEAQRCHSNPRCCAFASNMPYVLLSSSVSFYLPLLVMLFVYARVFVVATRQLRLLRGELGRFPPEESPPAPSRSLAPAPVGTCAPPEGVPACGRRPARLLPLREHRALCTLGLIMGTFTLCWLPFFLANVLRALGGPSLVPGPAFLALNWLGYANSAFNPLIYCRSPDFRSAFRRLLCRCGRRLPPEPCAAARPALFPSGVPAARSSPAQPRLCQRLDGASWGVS

[17] = biological target: GABA-A receptor; anion channel (Rattus norvegicus) (UniProt O09028+P15431+P18506+P18508+P19969+P20236+P23574+P23576+P28471+P28473+P30191+P62813+P63079+P63138+Q91ZM7+Q9ES14); details: Compound concentration 10.0 uM
[18] = biological target: Alpha-1D adrenergic receptor (Homo sapiens) (UniProt P25100); details: Compound concentration 10.0 uM
[19] = biological target: Sigma intracellular receptor 2 (Homo sapiens) (UniProt Q5BJF2); details: Compound concentration 10.0 uM

Chain of Transient receptor potential cation channel subfamily A member 1 (Homo sapiens, UniProt O75762) (O75762 whole entry): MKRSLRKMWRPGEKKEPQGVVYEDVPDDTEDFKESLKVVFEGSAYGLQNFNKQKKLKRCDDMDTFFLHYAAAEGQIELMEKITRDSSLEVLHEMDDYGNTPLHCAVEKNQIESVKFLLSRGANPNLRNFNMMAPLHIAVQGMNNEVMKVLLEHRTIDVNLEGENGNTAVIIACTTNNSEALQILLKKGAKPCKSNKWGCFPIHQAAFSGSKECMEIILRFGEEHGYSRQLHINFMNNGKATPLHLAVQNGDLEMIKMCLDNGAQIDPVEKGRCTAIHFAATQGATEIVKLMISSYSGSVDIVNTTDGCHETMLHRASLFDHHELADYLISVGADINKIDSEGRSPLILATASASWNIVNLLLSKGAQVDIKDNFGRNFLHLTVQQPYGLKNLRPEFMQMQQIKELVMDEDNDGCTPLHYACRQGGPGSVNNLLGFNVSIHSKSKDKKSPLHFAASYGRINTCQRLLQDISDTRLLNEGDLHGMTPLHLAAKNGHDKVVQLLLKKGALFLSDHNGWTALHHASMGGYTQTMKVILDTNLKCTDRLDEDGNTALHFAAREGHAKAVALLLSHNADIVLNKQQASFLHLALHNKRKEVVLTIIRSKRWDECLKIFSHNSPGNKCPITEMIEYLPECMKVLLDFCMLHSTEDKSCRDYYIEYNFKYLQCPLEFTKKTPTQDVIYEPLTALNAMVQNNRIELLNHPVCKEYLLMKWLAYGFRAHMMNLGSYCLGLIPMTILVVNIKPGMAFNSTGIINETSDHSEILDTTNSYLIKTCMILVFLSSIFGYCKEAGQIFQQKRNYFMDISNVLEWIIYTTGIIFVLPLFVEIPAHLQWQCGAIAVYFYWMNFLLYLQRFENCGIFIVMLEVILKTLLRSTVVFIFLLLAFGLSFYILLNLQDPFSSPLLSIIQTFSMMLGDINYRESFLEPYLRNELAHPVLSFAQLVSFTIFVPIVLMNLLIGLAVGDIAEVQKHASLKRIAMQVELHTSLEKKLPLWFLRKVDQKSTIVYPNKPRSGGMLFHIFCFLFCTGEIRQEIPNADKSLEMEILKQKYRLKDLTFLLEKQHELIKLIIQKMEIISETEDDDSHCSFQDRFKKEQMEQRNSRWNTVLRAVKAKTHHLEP

| Structure (SMILES) | IC50 [1] | IC50 [2] | IC50 [3] | IC50 [4] | IC50 [5] | inhibition [6] | inhibition [7] | inhibition [8] | inhibition [9] | inhibition (Histamine H2 receptor) | inhibition [10] | inhibition [11] | inhibition [12] | inhibition [13] | inhibition [14] | inhibition [15] | inhibition [16] | inhibition [17] | inhibition [18] | inhibition [19] |
| --- | --- | --- | --- | --- | --- | --- | --- | --- | --- | --- | --- | --- | --- | --- | --- | --- | --- | --- | --- | --- |
| COc1cc(N[C@@H]2CCCC[C@]2(O)C(F)(F)F)ccc1F [BAY-9897] | > 25 µM (not active) | > 25 µM (not active) | > 25 µM (not active) | 10 µM (not active) | > 30 µM (not active) | 6.99% | 11.6% | 6.32% | 15.6% | 89% | 2.69% | -3.92% | -0.24% | 22.2% | 25.6% | -5.5% | 34.2% | 5.42% | -4.64% | 27.8% |
| O[C@]1(C(F)(F)F)CCCC[C@H]1Nc1ccc(F)cc1 [BAY-390] | 0.016 µM (active) | 0.063 µM (active) | > 25 µM (not active) | 5.6 µM (not active) | > 25 µM (not active) | -1.95% | 39% | -4.08% | -0.01% | -1.07% | -8.22% | 4.19% | 20.2% | 7.94% | 4.73% | 10.4% | 31% | 4.57% | -2.73% | 8.95% |
